Tests used:
Assay type in all cases: cell-based
[1] = system: primary human fibroblasts derived from IPF patients (LL29 cells); test: Inhibition of the fibrotic process: αSMA staining in TGF-β1 treated LL29 fibroblasts; details: Fibroblast, 72 h, TGF-β1 10 ng/ml, 3 days, read-out: Inhibition of fibrosis IC50
Protocol: The above synthesized compounds were screened using primary human fibroblasts (derived from IPF patients) treated with TGF-β1 to determine their ability to inhibit the fibrotic process.
Each compound was dissolved in DMSO as a 10 mM stock and used to prepare compound source plates. […] LL29 cells were plated at 1,000 cells/well in 50 μl/well serum free F12 medium. […] Wells untreated with TGF-β1 were used as control for normalization and calculating IC50 values. Cells were incubated at 37° C. and 5% CO2 for 3 days. Cells were fixed using 4% formaldehyde (Electron Microscopy Sciences), washed 3 times with PBS followed by blocking and permeabilization using 3% Bovine Serum Albumin (BSA; Sigma) and 0.3% Triton X-100 (Sigma) in PBS. […] The IC50 values are reported.

[2] = system: Wnt activity (Wnt-responsive SP5 promoter luciferase reporter in SW480 cells); test: Wnt activity reporter assay: SW480 cells with SP5 promoter-driven firefly luciferase; details: Homo sapiens, 24 h after compound addition, read-out: Wnt inhibition
How it was run: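 SW480 cells (APC-mutant colon line) stably carrying a lentiviral SP5-promoter (eight TCF/LEF sites) firefly luciferase reporter were plated at ~10,000 cells/well. Luminescence was normalized to DMSO-only cells and used for IC50.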

[3] = system: primary human mesenchymal stem cells (hMSCs); test: Chondrogenesis assay in primary human mesenchymal stem cells, nodule count vs TGF-β3 positive control; details: 6 days; for Conc (nM) of Max. activity: 6-point dose-response 2700 nM to 10 nM, dose at which maximum chondrogenesis activity was reached; for Conc (nM) of 100% TGF-β3 activity: concentration required to induce chondrogenesis equivalent to TGF-β3 (10 ng/mL); for Max. Activity as % TGF-β3 activity: relative to TGF-β3 (10 ng/mL) positive control
Text: The above synthesized compounds were screened using primary human mesenchymal stem cells (hMSCs) to determine their ability to induce chondrogenesis (process by which cartilage is developed).
Human Mesenchymal Stem Cell Culture:
Primary human mesenchymal stem cells (hMSCs) were purchased from Lonza (Walkersville, Md.) and expanded in Mesenchymal Stem Cell Growth Media (Lonza). Cells between passage 3 and 6 were used for the experiments.
Number of nodules in each well was normalized to the average of 3 DMSO treated wells on the same plate using Excel (Microsoft Inc.). The normalized averages (fold change over DMSO) of 3 replicate wells for each compound concentration were calculated. Due to solubility limitations of some of the compounds, curve fitting was incomplete leading to inaccurate EC50 determinations.
Using TGF-β3 as a positive control, the concentration of test compounds required to induce equivalent levels of chondrogenesis is reported. In addition, the maximum activity of each compound and the respective dose that each compound reached maximum chondrogenesis activity is reported.

DYRK1A = DYRK1A (Homo sapiens (Human), UniProt Q13627); test: DYRK1A activity Tau assay: pSer396 Tau in SH-SY5Y cells by ELISA / western blot; details: overnight (16-18 h) exposure

Row | Compound | IC50 [1] [nM] | IC50 [2] [nM] | Conc (nM) of Max. activity [3] [nM] | Conc (nM) of 100% TGF-β3 activity [3] [nM] | Max. Activity as % TGF-β3 activity [3] [%] | EC50 (DYRK1A) [nM]
1 | O=C(Nc1cccnc1)c1n[nH]c2ccc(-c3cncc(CN4CC5CC(C4)O5)c3)cc12 [Compound 84, 5-(5-((6-Oxa-3-azabicyclo[3.1.1]heptan-3-yl)methyl)pyridin-3-yl)-N-(pyridin-3-yl)-1H-indazole-3-carboxamide] | 132 | 67 | 900 | 900 | 121 | 
2 | COc1ccc(NC(=O)c2n[nH]c3ccc(-c4cncc(CN5CCC(F)(F)C5)c4)cc23)cn1 [Compound 54, 5-(5-((3,3-Difluoropyrrolidin-1-yl)methyl)pyridin-3-yl)-N-(6-methoxypyridin-3-yl)-1H-indazole-3-carboxamide] | 51 | 5 | 300 |  | 51 | 2
3 | COc1ccc(NC(=O)c2n[nH]c3ccc(-c4cncc(CN5CCCC5)c4)cc23)cn1 [Compound 53, N-(6-Methoxypyridin-3-yl)-5-(5-(pyrrolidin-1-ylmethyl)pyridin-3-yl)-1H-indazole-3-carboxamide] | 231 | 50 | 2700 |  | 86 | 2
4 | CN1CCN(c2ccc(NC(=O)c3n[nH]c4ccc(-c5cncc(NC(=O)c6cc(F)ccc6F)c5)cc34)cn2)CC1 [Compound 48, 5-(5-(2,5-Difluorobenzamido)pyridin-3-yl)-N-(6-(4-methylpiperazin-1-yl)pyridin-3-yl)-1H-indazole-3-carboxamide] | 67 | 31 | 2700 | 2700 | 237 | 2
5 | CN1CCN(c2ccc(NC(=O)c3n[nH]c4ccc(-c5cncc(CN6CCC(F)(F)C6)c5)cc34)cn2)CC1 [Compound 55, 5-(5-((3,3-Difluoropyrrolidin-1-yl)methyl)pyridin-3-yl)-N-(6-(4-methylpiperazin-1-yl)pyridin-3-yl)-1H-indazole-3-carboxamide] | 140 | 4 | 100 |  | 69 | 1
6 | Cc1cncc(NC(=O)c2n[nH]c3ccc(-c4cncc(CN5CCCCC5)c4)cc23)c1 [Compound 64, N-(5-Methylpyridin-3-yl)-5-(5-(piperidin-1-ylmethyl)pyridin-3-yl)-1H-indazole-3-carboxamide] | 265 | 59 | 2700 |  | 83 | 2
7 | CC(C)NC(=O)c1n[nH]c2ccc(-c3cncc(CN4CCC(F)(F)CC4)c3)cc12 [Compound 132, 5-(5-((4,4-Difluoropiperidin-1-yl)methyl)pyridin-3-yl)-N-isopropyl-1H-indazole-3-carboxamide] | 237 | 47 | 2700 | 2700 |  | 6
8 | O=C(Nc1cnccc1NC(=O)C1CC1)c1n[nH]c2ccc(-c3cncc(CN4CCCCC4)c3)cc12 [Compound 74, N-(4-(Cyclopropanecarboxamido)pyridin-3-yl)-5-(5-(piperidin-1-ylmethyl)pyridin-3-yl)-1H-indazole-3-carboxamide] | 2740 | 120 | 10 |  | 31 | 
9 | Cc1ccc(NC(=O)c2n[nH]c3ccc(-c4cncc(CN5CCCCC5)c4)cc23)cn1 [Compound 65, N-(6-Methylpyridin-3-yl)-5-(5-(piperidin-1-ylmethyl)pyridin-3-yl)-1H-indazole-3-carboxamide] | 172 | 57 | 900 | 900 | 117 | 1
10 | O=C(Nc1ccnc(C(F)(F)F)c1)c1n[nH]c2ccc(-c3cncc(CN4CCCCC4)c3)cc12 [Compound 80, 5-(5-(Piperidin-1-ylmethyl)pyridin-3-yl)-N-(2-(trifluoromethyl)pyridin-4-yl)-1H-indazole-3-carboxamide] | 303 | 36 | 900 |  | 20 | 36
11 | CC1CCN(Cc2cncc(-c3ccc4[nH]nc(C(=O)Nc5cccnc5)c4c3)c2)CC1 [Compound 82, 5-(5-((4-Methylpiperidin-1-yl)methyl)pyridin-3-yl)-N-(pyridin-3-yl)-1H-indazole-3-carboxamide] | 129 | 7 | 900 | 900 | 109 | 2
12 | C[C@@H]1CN(c2ccc(NC(=O)c3n[nH]c4ccc(-c5cncc(CN6CCCCC6)c5)cc34)cn2)C[C@H](C)O1 [Compound 1141, N-(6-((2S,6R)-2,6-dimethylmorpholino)pyridin-3-yl)-5-(5-(piperidin-1-ylmethyl)pyridin-3-yl)-1H-indazole-3-carboxamide] | 468 | 3 | 2700 | 2700 | 129 | 1
13 | Cc1ncc(NC(=O)c2n[nH]c3ccc(-c4cccnc4)cc23)cn1 [Compound 97, N-(2-Methylpyrimidin-5-yl)-5-(pyridin-3-yl)-1H-indazole-3-carboxamide] |  |  | 2700 | 2700 | 98 | 556
14 | O=C(NC1CC1)c1n[nH]c2ccc(-c3cncnc3)cc12 [Compound 1269, N-Cyclopropyl-5-(pyrimidin-5-yl)-1H-indazole-3-carboxamide] |  |  | 2700 |  | 53 | 76
15 | CC(C)Oc1ccc(NC(=O)c2n[nH]c3ccc(-c4cncc(CN5CC6CC(C5)O6)c4)cc23)cn1 [Compound 85, 5-(5-((6-Oxa-3-azabicyclo[3.1.1]heptan-3-yl)methyl)pyridin-3-yl)-N-(6-isopropoxypyridin-3-yl)-1H-indazole-3-carboxamide] | 180 | 61 | 900 |  | 49 | 4
16 | CC(C)CC(=O)Nc1ccncc1NC(=O)c1n[nH]c2ccc(-c3cncc(CN4CCCCC4)c3)cc12 [Compound 73, N-(4-(3-Methylbutanamido)pyridin-3-yl)-5-(5-(piperidin-1-ylmethyl)pyridin-3-yl)-1H-indazole-3-carboxamide] | 1870 | 25 | 900 |  | 65 | 57
17 | O=C(Nc1ccnc(N2CCCCC2)c1)c1n[nH]c2ccc(-c3cccnc3)cc12 [Compound 103, N-(2-(Piperidin-1-yl)pyridin-4-yl)-5-(pyridin-3-yl)-1H-indazole-3-carboxamide] |  |  | 2700 | 2700 | 130 | 5
18 | CC(C)Oc1ccc(NC(=O)c2n[nH]c3ccc(-c4cncc(CN5CCCCC5)c4)cc23)cn1 [Compound 67, N-(6-Isopropoxypyridin-3-yl)-5-(5-(piperidin-1-ylmethyl)pyridin-3-yl)-1H-indazole-3-carboxamide] | 251 | 41 | 2700 |  | 82 | 3
19 | CC(C)N1CCC(NC(=O)c2n[nH]c3ccc(-c4cncc(Cl)c4)cc23)CC1 [Compound 1305, 5-(5-Chloropyridin-3-yl)-N-(1-isopropylpiperidin-4-yl)-1H-indazole-3-carboxamide] |  |  | 2700 | 2700 | 121 | 124

Reference: patent US10669240B2, “5-substituted indazole-3-carboxamides and preparation and use thereof” (Samumed, LLC, priority 2014, dated 2020)
